Laboratory results taken from PMC12308784, “Organometallic Half-Sandwich Complexes of 1,10-Phenanthroline Derivatives with Improved Solubility, Albumin-Binding, and Nanoformulation Potential Targeting Drug Resistance in Cancer” (Inorganic Chemistry, 2025).

Tests used:
[1] = target: T1, human serum albumin (HSA) (Homo sapiens, UniProt P02768); assay: HSA binding by capillary zone electrophoresis (CZE); conditions: for equiv of complex bound on HSA: CZE
T1 construct: purchased Sigma-Aldrich A8763
T1 sequence (P02768 25-609): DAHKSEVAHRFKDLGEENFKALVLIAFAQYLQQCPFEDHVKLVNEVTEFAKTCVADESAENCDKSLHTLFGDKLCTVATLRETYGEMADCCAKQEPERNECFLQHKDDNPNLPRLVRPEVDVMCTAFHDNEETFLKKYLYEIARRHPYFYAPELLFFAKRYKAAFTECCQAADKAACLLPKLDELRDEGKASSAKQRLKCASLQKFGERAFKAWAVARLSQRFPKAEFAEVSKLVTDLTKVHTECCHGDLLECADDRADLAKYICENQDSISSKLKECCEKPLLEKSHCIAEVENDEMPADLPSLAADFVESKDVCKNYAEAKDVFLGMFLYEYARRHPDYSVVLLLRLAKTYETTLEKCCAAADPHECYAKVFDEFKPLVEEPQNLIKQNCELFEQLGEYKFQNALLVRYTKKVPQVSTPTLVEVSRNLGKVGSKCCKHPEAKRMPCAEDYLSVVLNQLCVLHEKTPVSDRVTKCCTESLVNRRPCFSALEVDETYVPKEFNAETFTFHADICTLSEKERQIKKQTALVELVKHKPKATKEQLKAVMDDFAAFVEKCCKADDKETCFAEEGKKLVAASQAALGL
Protocol: UV–vis is a simple technique to follow the interaction of half-sandwich metal complexes with HSA in time. Charge transfer bands of the complexes were monitored over a 12 h period (as shown for the RhCp*BP – HSA (1.5:1) system in Figure S16). An initial rapid spectral change can be observed, which is followed by a slower spectral evolution. This phenomenon may indicate (i) a rapid binding interaction followed by a slow rearrangement of the coordination sphere around the Rh center or (ii) that the differing accessibility of binding sites results in biphasic binding kinetics. […] In contrast, minimal spectral changes were detected for the RuCym complexes. […] To further substantiate this observation, CZE was applied. In Figure , the peak of the free RhCp*BP complex is clearly separated from the peaks of the comigrating protein and the protein-bound complex. […] Whereas ca. 50% of the complex is protein-bound after the first 5 min, the equilibration takes ca. 3–4 h. This observation confirms that the accessibility of binding sites for the complexes is not equal in HSA.
6 (a) Electropherograms of the RhCp*BP complex in the absence and presence of 0.5 equiv HSA at pH = 7.4 followed in time and (b) the relative peak area of free RhCp*BP at 210 nm (migration time: 7.4 min) as a function of incubation time. {c complex = 95 μM, c HSA = 48 μM; U = 8 kV; current = 105 μA; PBS’; t = 25 °C}.
The interaction of complex [RhCp*(BP)-Cl]Cl (ca. 100 μM) with HSA (ca. 50 μM) in PBS’ medium was studied by an Agilent 7100 capillary electrophoresis system equipped with a diode-array UV–vis detector (200–600 nm). Fused silica capillaries of 48 cm total length with a 75 μm inner diameter were used (Agilent Technologies). The background electrolyte (BGE) was PBS’ buffer (pH = 7.4), in which the samples were also made. The conditioning process of new capillaries and daily preparation were performed as described formerly. In order to ensure a steady baseline, the capillary was flushed with BGE (2 min) before each run and was rinsed with NaOH (0.1 M; 1.5 min), H2O (1.5 min), and then with BGE (2 min) after each run. The capillary cassette was kept at 25 °C. The hydrodynamic injection was used at 50 mbar for 5 s injection time. For separation, an 8 kV voltage (with ca. 100 μA current) was applied. The sample run time was set to 18 min. The computer program ChemStation (Agilent) was used to record electropherograms.

[2] = ternary complex formation with histidine model 1-methylimidazole by 1H NMR; conditions: PBS’ pH 7.4
Excerpt: Our other aim was to investigate the binding kinetics of RuCymBP over a longer period of time, since MeIm has no such stability problems compared to HSA in a 2 week follow-up.
Slow exchange of the aqua and chlorido complexes on the NMR time scale is not unique for RuCym complexes; formerly we have observed the same phenomenon with 2-picolinate and cyclometalated 4-phenylthiazole complexes. , The ternary complex formation with MeIm is rather slow; at a 1:1 ratio, the emergence of a new peak can be observed after 6 days, and only ca. 10% ternary complex forms after 14 days. By increasing the MeIm excess to 10-fold, the ternary complex becomes detectable after 8 h and about 2/3 of the metal complex transforms to the ternary species after 14 days. ^1H NMR studies on the RhCp*BP – MeIm system indicated a more rapid and almost quantitative interaction (Figure S21). […] The quantity of the ternary complex formed with MeIm agrees very well with previously reported data on RhCp*BPY–MeIm (67%), although the complex formation was reported to be slower for the latter. […]
A Bruker AVANCE III HD Ascend 500 Plus instrument was used for NMR studies. For the characterization of the complexes both the ^1H and ^13C NMR spectra were recorded in CD3OD (10 mM, t = 25 °C). […]
Figure S 19. Fluorescence emission spectra of HSA in the presence of RhCp*BP over 5 h { cRhCp*BP = […]

[3] = time-dependent stability in PBS’ by UV–vis and 1H NMR; format: physicochemical; conditions: pH 7.4, 100 mM chloride
Protocol: As a first step, time-dependent stability measurements were conducted by UV–visible (UV–vis) for all the metal complexes (Figure S13), focusing on their stability in a modified phosphate buffer saline (PBS’) medium to mimic conditions relevant to intravenous applications regarding the pH (7.4) and the chloride ion concentration (100 mM). […] Unfortunately, determining the equilibrium constants for direct complex formation was not possible due to the poor solubility of the ligands in water. […] The robust stability of the analogous IrCp* complexes was also reported.
Figure S14. Time-dependent UV -Vis spectra of metal complexes (a) cRuCymBP = 69 µM; (b) cRhCp*BP =
66 µM; (c) cRuCymDCP = 99 µM; (d) cRhCp*DCP = 85 µM) in PBS' buffer over 24 h (a-d). Spectra were recorded
Figure S15. Time-dependent 1H NMR spectra of metal complex RhCp*BP (66 µM) at pH 7.40 over 5 days.
{10% (v/v) D2O / 90% (v/v) H2O; PBS’; t = 25 °C} […]

[4] = 0.5 equiv HSA, PBS’ pH 7.4, 25 °C
[5] = c complex = 95 μM, c HSA = 48 μM, PBS’ pH 7.4, 25 °C

Row | stability in PBS’ over 24 h [3] | free complex after 4 h [1, 4] [%] | complex protein-bound after the first 5 min [1, 5] | equilibration time of HSA binding [1, 5] [h] | Compound | metal complex unbound after 24 h [1, 4] [%] | equiv of complex bound on HSA [1] | time until the ternary complex is detectable ([2]; 10-fold MeIm excess) [h] | time until the ternary complex peak emerges ([2]; complex:MeIm 1:1) [days]
1 |  |  |  |  | Cc1c(C)c(C)[c-](C)c1C.Clc1ccnc2c1ccc1c(Cl)ccnc12.[Cl-].[Cl-].[Rh+3] [RhCp*DCP, [Rh(III)(η^5-C5Me5)(4,7-dichloro-1,10-phenanthroline)Cl]Cl] | 21 | at least 2 equiv |  | 
2 |  |  |  |  | Cc1ccc(C(C)C)cc1.[Cl-].[Cl-].[Ru+2].c1ccc(-c2ccnc3c2ccc2c(-c4ccccc4)ccnc23)cc1 [RuCymBP, [Ru(II)(η^6-p-cymene)(bathophenanthroline)Cl]Cl] |  |  | 8 | 6
3 | no changes | 7 | ca. 50% | 3 to 4 | [Rh(III)(η^5-C5Me5)(bathophenanthroline)Cl]Cl [RhCp*BP] |  | at least 2 equiv |  | 
